Source: PMC9299836 (eLife, 2022)

Legend:
[1] = molecular target: mGluR2 (Mus musculus, UniProt Q14BI2, INS715F); assay: Live-cell FRET, azi-ECL2 (7TM domain, extracellular loop 2) sensor in HEK293T cells; details: glutamate + 10μM modulator, maximal response normalized to 1mM glutamate;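 further: Cy3/Cy5 click-labeled sensor, whole-membrane ROIs per cell, apparent FRET after bleed-through correction, ΔFRET as treatment minus pre-treatment signal, at room temperature, at least three biological replicates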
Sequence of mGluR2 (Mus musculus, UniProt Q14BI2, INS715F) (Q14BI2 with tags, fused parts or gaps INS715F): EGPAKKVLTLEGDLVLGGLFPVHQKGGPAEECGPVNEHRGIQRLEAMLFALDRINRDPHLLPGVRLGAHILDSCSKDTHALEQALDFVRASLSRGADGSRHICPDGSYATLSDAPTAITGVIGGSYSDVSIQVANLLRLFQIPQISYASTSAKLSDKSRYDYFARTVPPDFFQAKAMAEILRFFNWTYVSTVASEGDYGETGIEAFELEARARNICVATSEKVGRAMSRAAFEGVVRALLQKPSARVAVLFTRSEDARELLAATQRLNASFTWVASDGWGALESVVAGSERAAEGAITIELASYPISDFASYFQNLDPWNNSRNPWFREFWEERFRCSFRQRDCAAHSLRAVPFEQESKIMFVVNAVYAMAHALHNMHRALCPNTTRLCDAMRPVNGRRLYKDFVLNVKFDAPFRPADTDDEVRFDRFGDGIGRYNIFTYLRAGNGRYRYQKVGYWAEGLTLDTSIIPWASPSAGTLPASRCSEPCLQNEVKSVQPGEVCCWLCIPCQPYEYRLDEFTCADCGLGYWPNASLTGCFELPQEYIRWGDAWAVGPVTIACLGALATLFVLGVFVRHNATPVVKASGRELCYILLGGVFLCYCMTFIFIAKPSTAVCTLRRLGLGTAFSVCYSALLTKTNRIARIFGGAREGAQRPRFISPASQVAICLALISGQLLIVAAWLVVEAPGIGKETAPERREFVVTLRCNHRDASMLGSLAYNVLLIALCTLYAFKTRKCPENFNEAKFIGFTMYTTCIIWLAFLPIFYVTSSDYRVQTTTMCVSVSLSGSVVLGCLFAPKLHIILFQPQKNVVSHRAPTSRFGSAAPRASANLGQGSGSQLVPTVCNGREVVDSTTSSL

[2] = molecular target: mGluR2 (Mus musculus, UniProt Q14BI2, A548F); assay: Single-molecule FRET (SiMPull) of azi-CRD: population histograms and state occupancy; details: N 3;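 further: Cy3/Cy5-labelled receptor from HEK293T cell lysate captured on anti-FLAG surfaces, apparent FRET efficiency computed from donor and acceptor intensities with crosstalk correction, pooled into population histograms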
Sequence of mGluR2 (Mus musculus, UniProt Q14BI2, A548F) (Q14BI2 19-872 A548F): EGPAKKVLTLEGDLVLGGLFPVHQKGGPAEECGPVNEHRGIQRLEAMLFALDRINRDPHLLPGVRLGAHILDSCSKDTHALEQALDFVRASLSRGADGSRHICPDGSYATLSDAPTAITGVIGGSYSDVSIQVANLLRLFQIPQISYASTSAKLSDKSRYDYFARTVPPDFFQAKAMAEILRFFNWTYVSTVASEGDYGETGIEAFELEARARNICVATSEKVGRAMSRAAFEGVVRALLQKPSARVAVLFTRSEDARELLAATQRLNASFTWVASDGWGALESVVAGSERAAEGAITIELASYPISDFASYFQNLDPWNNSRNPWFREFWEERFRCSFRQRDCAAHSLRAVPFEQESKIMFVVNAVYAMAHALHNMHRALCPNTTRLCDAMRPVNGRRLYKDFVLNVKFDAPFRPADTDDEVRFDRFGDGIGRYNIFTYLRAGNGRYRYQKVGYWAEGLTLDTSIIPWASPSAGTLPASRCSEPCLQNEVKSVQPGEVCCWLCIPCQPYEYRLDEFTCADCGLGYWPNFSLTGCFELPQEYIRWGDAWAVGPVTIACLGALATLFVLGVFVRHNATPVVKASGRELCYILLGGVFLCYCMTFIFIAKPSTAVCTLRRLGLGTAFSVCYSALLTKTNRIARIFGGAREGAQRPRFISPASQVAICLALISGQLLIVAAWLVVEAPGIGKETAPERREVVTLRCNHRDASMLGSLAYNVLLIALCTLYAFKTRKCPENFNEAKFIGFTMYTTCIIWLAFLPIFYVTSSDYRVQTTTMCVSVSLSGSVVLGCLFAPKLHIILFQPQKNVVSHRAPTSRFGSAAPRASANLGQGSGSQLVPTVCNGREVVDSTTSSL

## MNI-137
[1]; log[Glutamate] (M) -5.82391
  Mean normalized azi-ECL2 FRET response: 0.01822
[1]; log[Glutamate] (M) -6.52288
  Mean normalized azi-ECL2 FRET response: 0
[1]; log[Glutamate] (M) -7
  Mean normalized azi-ECL2 FRET response: 0
[1]; log[Glutamate] (M) -7.69897
  Mean normalized azi-ECL2 FRET response: 0
[1]; log[Glutamate] (M) -4.69897
  Mean normalized azi-ECL2 FRET response: 0.4672
[2]; FRET 0, 0μM Glutamate + GPT/Pyruvate + 5μM MNI-137
  smFRET Histogram, Mean: 5.11E-04
[2]; FRET 0.02, 0μM Glutamate + GPT/Pyruvate + 5μM MNI-137
  smFRET Histogram, Mean: 6.64E-04
[2]; FRET 0.04, 0μM Glutamate + GPT/Pyruvate + 5μM MNI-137
  smFRET Histogram, Mean: 0.00218
[2]; FRET 0.06, 0μM Glutamate + GPT/Pyruvate + 5μM MNI-137
  smFRET Histogram, Mean: 0.00418
[2]; FRET 0.08, 0μM Glutamate + GPT/Pyruvate + 5μM MNI-137
  smFRET Histogram, Mean: 0.00801
[2]; FRET 0.1, 0μM Glutamate + GPT/Pyruvate + 5μM MNI-137
  smFRET Histogram, Mean: 0.01404
[2]; FRET 0.1, 15μM Glutamate + 5μM MNI-137
  smFRET Histogram, Mean: 0.0021
[2]; FRET 0.12, 0μM Glutamate + GPT/Pyruvate + 5μM MNI-137
  smFRET Histogram, Mean: 0.02347
[2]; FRET 0.12, 15μM Glutamate + 5μM MNI-137
  smFRET Histogram, Mean: 0.00321
[2]; FRET 0.14, 0μM Glutamate + GPT/Pyruvate + 5μM MNI-137
  smFRET Histogram, Mean: 0.03681
[2]; FRET 0.14, 15μM Glutamate + 5μM MNI-137
  smFRET Histogram, Mean: 0.00506
[2]; FRET 0.16, 0μM Glutamate + GPT/Pyruvate + 5μM MNI-137
  smFRET Histogram, Mean: 0.05131
[2]; FRET 0.16, 15μM Glutamate + 5μM MNI-137
  smFRET Histogram, Mean: 0.00784
[2]; FRET 0.18, 0μM Glutamate + GPT/Pyruvate + 5μM MNI-137
  smFRET Histogram, Mean: 0.06643
[2]; FRET 0.18, 15μM Glutamate + 5μM MNI-137
  smFRET Histogram, Mean: 0.01263
[2]; FRET 0.2, 0μM Glutamate + GPT/Pyruvate + 5μM MNI-137
  smFRET Histogram, Mean: 0.07988
[2]; FRET 0.2, 15μM Glutamate + 5μM MNI-137
  smFRET Histogram, Mean: 0.01781
[2]; FRET 0.22, 0μM Glutamate + GPT/Pyruvate + 5μM MNI-137
  smFRET Histogram, Mean: 0.08842
[2]; FRET 0.22, 15μM Glutamate + 5μM MNI-137
  smFRET Histogram, Mean: 0.02498
[2]; FRET 0.24, 0μM Glutamate + GPT/Pyruvate + 5μM MNI-137
  smFRET Histogram, Mean: 0.08863
[2]; FRET 0.24, 15μM Glutamate + 5μM MNI-137
  smFRET Histogram, Mean: 0.03347
[2]; FRET 0.26, 0μM Glutamate + GPT/Pyruvate + 5μM MNI-137
  smFRET Histogram, Mean: 0.08743
[2]; FRET 0.26, 15μM Glutamate + 5μM MNI-137
  smFRET Histogram, Mean: 0.04243
[2]; FRET 0.28, 0μM Glutamate + GPT/Pyruvate + 5μM MNI-137
  smFRET Histogram, Mean: 0.07891
[2]; FRET 0.28, 15μM Glutamate + 5μM MNI-137
  smFRET Histogram, Mean: 0.05374
[2]; FRET 0.3, 0μM Glutamate + GPT/Pyruvate + 5μM MNI-137
  smFRET Histogram, Mean: 0.06941
[2]; FRET 0.3, 15μM Glutamate + 5μM MNI-137
  smFRET Histogram, Mean: 0.06299
[2]; FRET 0.32, 0μM Glutamate + GPT/Pyruvate + 5μM MNI-137
  smFRET Histogram, Mean: 0.05758
[2]; FRET 0.32, 15μM Glutamate + 5μM MNI-137
  smFRET Histogram, Mean: 0.07069
[2]; FRET 0.34, 0μM Glutamate + GPT/Pyruvate + 5μM MNI-137
  smFRET Histogram, Mean: 0.04784
[2]; FRET 0.34, 15μM Glutamate + 5μM MNI-137
  smFRET Histogram, Mean: 0.0754
[2]; FRET 0.36, 0μM Glutamate + GPT/Pyruvate + 5μM MNI-137
  smFRET Histogram, Mean: 0.03831
[2]; FRET 0.36, 15μM Glutamate + 5μM MNI-137
  smFRET Histogram, Mean: 0.07714
[2]; FRET 0.38, 0μM Glutamate + GPT/Pyruvate + 5μM MNI-137
  smFRET Histogram, Mean: 0.03079
[2]; FRET 0.38, 15μM Glutamate + 5μM MNI-137
  smFRET Histogram, Mean: 0.07309
[2]; FRET 0.4, 0μM Glutamate + GPT/Pyruvate + 5μM MNI-137
  smFRET Histogram, Mean: 0.02474
[2]; FRET 0.4, 15μM Glutamate + 5μM MNI-137
  smFRET Histogram, Mean: 0.06696
[2]; FRET 0.42, 15μM Glutamate + 5μM MNI-137
  smFRET Histogram, Mean: 0.05663
[2]; FRET 0.44, 0μM Glutamate + GPT/Pyruvate + 5μM MNI-137
  smFRET Histogram, Mean: 0.01517
